In test [1] the test system is responder T cells. Description: Suppressive activity of stimulated CD4+ cells on proliferation of CFSE-labeled responder T cells. It is filed as cell-based, human. As to conditions: FIG. 4; cells stimulated with vs without azacytidine; ratio 1:10 to responder cells, soluble anti-CD3, 3 days. Here is the method: Each population of stimulated cells was assayed for suppressive activity by culturing the cells with responder T cells labeled with carbofluorescein diacetate succinimydil ester (CFSE) at a ratio of 1:10. The cells were stimulated with soluble anti-CD3 for 3 days and proliferation of the responder cells was measured by dilution of CFSE.
The induced Tregs were added to T respond cells (1:4 ratio) and suppressive activity was calculated.

Test [2] concerns CD4+ cells. Description: Proliferation of cultured CD4+ cells upon re-stimulation. It is filed as cell-based, human. The settings on record: after 6 days of culture. The text has this:
A further phenotypic property of nTregs is poor proliferative responsiveness, which is often accompanied by lowered production of certain pro-proliferation cytokines, such as IL-2. Other cytokines, such as IL-4, IFNγ and TFN-α are also associated with proliferation, although they are generally produced in low levels even in proliferating cells. Proliferation response can be measured using methods known in the art, such as thymidine uptake assays and assays of carboxyfluorescein succinimidyl ester (CFSE) dilution.
As discussed above, one phenotypic property of nTregs is poor proliferative responsiveness. Human naïve CD4+ cells stimulated with IL-2 and TGF-β become FOXP3+, but are only partially differentiated suppressor cells. […] Since the only source of pro-proliferative cytokines are the iTregs themselves, the lack of proliferation by azacytidine-treated cells is consistent with poor cytokine production, which is a distinguishing characteristic of nTregs.

For test [3], the system named is naïve CD4+ cells. Description: FOXP3 expression by flow cytometry in naïve CD4+ cells stimulated with anti-CD3/CD28 beads. It is filed as cell-based, human. An excerpt:
FIG. 1 is a typical example of FOXP3 expression at day 6 of cultures of non-regulatory T cells. In the experiments represented in this figure, naïve CD4+ cells were stimulated with 3/28 beads (1 bead per 10 T cells) with (right panel) or without (left panel) TGF-β for 6 days.
This inhibitor blocks TGF-β type I receptor signaling. The figures in FIG. 2A provide data from flow cytometry analysis of stimulated CD4+ cells. Naïve CD4+ cells were stimulated with anti-CD3/CD28 beads for 5 or 6 days in medium only (left-most panel), in the presence of 5 ng/ml TGF-β (middle panel) or with 1 μM azacytidine (right-most panel). The graphs also show data from cells stimulated with and without ALK5i (10 μM).
FIG. 3A provides flow cytometry data from naïve CD4 cells stimulated with anti-CD3/CD28 beads for 5 or 6 days in (in order of the panels from left to right) medium alone, in medium containing TGF-β, in medium containing azacytidine, and in medium containing azacytidine and TGF-β. The arrows indicate the […] after stimulation with anti-CD3/anti-CD28.
Naïve CD4+ cells were stimulated with anti-CD3/28 beads as described above. […] FOXP3 expression among CD4+CD25+ cells was determined by flow cytometry. FIG. 5A is a bar graph showing the indicated mean±SEM for 5 independent experiments. FIG. 5B is representative of experiments in 0.1 μM ATRA.
The traces identified with arrows indicate data from cells expressing FOXP3 after stimulation, and percentage of FOXP3 expressing cells is indicated in each figure.

Test [4] deals with memory CD4+ cells (CD45RO+). Description: Stimulation of memory CD4+ cells (CD45RO+) with or without azacytidine (Example 7). Type of test: cell-based. The protocol: In addition to naïve CD4+ cells (also referred to as CD45RA+ cells), memory CD4+ cells (CD45RO+) are stimulated and assessed for the effect of azacytidine and azacytidine+retinoic acid on their phenotypic properties. These memory CD4+ cells represent a resting but previously activated population. The cells are stimulated with anti-CD3/anti-CD28 beads (at 1 in 10) with or without azacytidine (1 μM), azacytidine combined with all-trans retinoic acid and also with or without TGF-β (5 ng/ml). After 6 days, the cells are depleted of stimulating beads and assayed for FOXP3 expression, suppressor activity and proliferative activity. Greater than 50% of the stimulated cells express FOXP3. Enhanced FOXP3 expression in cells cultured in medium alone may be due to TGF-β provided by non-T cells in the culture.
Remaining cells are restimulated with anti-CD3/anti-CD28 (at 1 in 10) with or without fresh azacytidine and/or azacytidine plus retinoic acid, such that there is a group from each CD4+ subset that is exposed to azacytidine/azacytidine+retinoic acid for the first time. After a further 6 days, the cells are assayed again for FOXP3 expression, suppressor activity and proliferative activity.

Test [5] deals with naïve CD4+ cells. Description: Surface marker phenotype (CD45RO, CD103, CD127) of stimulated naïve CD4+ cells. As to conditions: FIG. 7; after 6 days of stimulation. Type of test: cell-based, human.
Description: Naïve T cells display the CD45RA+ marker and lack CD45RO. […] Finally, nTregs characteristically express the αEβ7 integrin (CD103) induced by TGF-β.
The subject of test [6] is CD4+GFP-cells. Description: FOXP3 induction in CD4+GFP- cells of GFP-FOXP3 mice (Example 10). It is filed as cell-based. The settings on record: CD4+GFP- cells sorted from GFP-FOXP3 mice. Here is the method:
This assessment utilizes mice engineered to express a GFP-FOXP3 fusion protein. CD4+GFP-cells isolated by cell sorting are stimulated in the presence or absence of regulatory compositions containing azacytidine and regulatory compositions containing azacytidine and retinoic acid. Stimulation is also tested with such regulatory compositions with and without TGF-β. […] Purified populations of FOXP3+ cells are isolated by cell sorting. As a positive control, nTregs are also sorted from fresh spleens and lymph nodes. Both iTregs and nTregs cells (5×10^6) are injected into congenic CD45.1-mice. For the azacytidine-generated iTreg there are enough cells to have three to four mice per group. There are at least two mice per group for the nTregs. In some experiments, nTregs are expanded in culture to obtain sufficient numbers of cells.

The subject of test [7] is naïve CD4+ cells. Put plainly: Membrane-bound TGF-β staining after re-stimulation of naïve CD4+ cells. Type of test: cell-based, human. As to conditions: FIG. 8; 6 days with agents, re-stimulated with anti-CD3/28 beads. An excerpt: Naïve CD4+ cells were stimulated with agents indicated for 6 days and re-stimulated with anti-CD3/28 beads and stained with fluorochrome-conjugated anti-TGF-β for membrane-bound TGF-β.

Where [8] appears, read: azacytidine 1 μM, after repeated stimulation.

“Also recorded” adds a separate entry of the source.

Regarding “2′-Deoxy-5-azacytidine; 5-Aza-2′-deoxycytidine”, the suppressive activity entry in test [1] is reported as “significantly more suppressive; also recorded: develop suppressive activity”. Also, the proliferation upon re-stimulation result in test [2] was “fail to proliferate upon re-stimulation”. In test [3] (FIG. 2A, anti-CD3/CD28 beads 5 or 6 days, 1 μM azacytidine, no exogenous TGF-β, vs medium only), the “FOXP3 expression (percentage of FOXP3 positive cells)” value is on record as “enhances FOXP3 expression to a similar extent as the enhancement seen with TGF-β; also recorded: markedly augments the percentage of FOXP3 positive cells”. Also, in test [4] (setting [8]), the “FOXP3 expression vs total T cells stimulated without azacytidine” value was “markedly greater” and the “suppressive activity vs total T cells stimulated without azacytidine” value is “markedly greater”.

For the molecule `CC1=C(/C=C/C(C)=C/C=C/C(C)=C/C(=O)O)C(C)(C)CCC1` [retinoic acid, all-trans retinoic acid], the “FOXP3 expression in stimulated CD4+ cells” value in test [3] (FIG. 5, retinoic acid added to TGF-β and azacytidine, ATRA 0.1-0.5 μM, 4 days, CD4+CD25+ cells) is given as “enhances FOXP3 expression”.

As to TGF-β, the “cells that acquired the CD45RO marker” value in test [5] is on record as 50%. Further, the “cells which express FOXP3” value in test [3] (FIG. 1, 3/28 beads (1 bead per 10 T cells), 6 days, with vs without TGF-β) is on record as “twice as many cells which express FOXP3”. Besides, the FOXP3 expression result in test [6] is “induces FOXP3 expression”. Further, the “expression of membrane-bound TGF-β” value in test [7] is listed as “some T cells primed with TGF-β now expressed this cytokine on their cell surface; also recorded: some T cells contacted with TGF-β prior to stimulation now expressed this cytokine on their cell surface”. Moreover, the “proliferation of stimulated cells” value in test [4] (TGF-β 5 ng/ml, 6 days) was “hyperproliferative and expand markedly”.

For the origin of these results see patent US20090257988A1, “METHODS AND COMPOSITIONS FOR ACCELERATING THE GENERATION OF REGULATORY T CELLS EX VIVO” (USC Stevens, Hughes Center, priority 2008, published 2009).
